Measured values taken from DBAASP.
Values after ≈ are worked out from the molar mass of the structure shown. Values joined by “and” are separate entries in the source; they are usually repeats but may differ in a detail not shown here. Equal values may be shown once.

Key:
Assay in all cases: ≥ marks a high value that may be exact or a test limit, other limits are often not marked, values filed in µg/mL are converted to µM
[1] = test system: Escherichia coli ATCC 25922
[2] = test system: Staphylococcus aureus ATCC 29213
[3] = test system: Acinetobacter baumannii ATCC 19606
[4] = test system: Enterococcus faecalis ATCC 29212
[5] = test system: Pseudomonas aeruginosa ATCC 27853
[6] = test system: Staphylococcus aureus ATCC 25923
[7] = test system: Escherichia coli
[8] = test system: Pseudomonas aeruginosa
[9] = test system: Staphylococcus aureus
[10] = test system: Bacillus subtilis
[11] = test system: Candida albicans ATCC 2002
[12] = test system: Staphylococcus epidermidis

`CC[C@H](C)[C@H](NC(=O)[C@H](CCCN=C(N)N)NC(=O)[C@H](CCC(N)=O)NC(=O)[C@@H](NC(=O)[C@@H](NC(=O)[C@H](CCCN=C(N)N)NC(=O)[C@H](CCCCN)NC(=O)[C@@H](N)Cc1ccccc1)[C@@H](C)CC)C(C)C)C(=O)N[C@@H](CCCCN)C(=O)N[C@@H](CC(=O)O)C(=O)N[C@@H](Cc1cnc[nH]1)C(=O)N[C@@H](CC(C)C)C(=O)N[C@@H](CCCN=C(N)N)C(=O)O` [FKRIVQRIKDHLR] was tested, and the MIC [1] was 10 µM (≈ 17.1 µg/mL) and the MIC [2] was > 40 µM.

With `CC(C)C[C@H](NC(=O)[C@H](CCCCN)NC(=O)CNC(=O)[C@H](CC(C)C)NC(=O)[C@H](CC(C)C)NC(=O)[C@H](C)NC(=O)[C@H](CC(N)=O)NC(=O)[C@H](CC(C)C)NC(=O)[C@H](C)NC(=O)[C@H](CCC(N)=O)NC(=O)CNC(=O)[C@@H](NC(=O)[C@H](Cc1ccccc1)NC(=O)CNC(=O)[C@H](CC(C)C)NC(=O)[C@@H](N)Cc1ccccc1)C(C)C)C(N)=O` [FLGFVGQALNALLGKL] the MIC [3] was > 64 µM, the MIC [4] was > 64 µM and the MIC [1] was > 64 µM. For the same compound, the MIC [2] was 32 µM (≈ 53.1 µg/mL).

`CC(C)C[C@H](NC(=O)[C@H](CC(C)C)NC(=O)[C@H](CCCCN)NC(=O)[C@H](CCCCN)NC(=O)[C@H](CC(C)C)NC(=O)[C@H](CCC(N)=O)NC(=O)[C@H](CCCCN)NC(=O)[C@H](CC(C)C)NC(=O)[C@@H](N)Cc1ccccc1)C(N)=O` [FLKQLKKLL] was tested, and the MIC [3] was > 113 µM, the MIC [1] was 56.6 µM (≈ 63.9 µg/mL) and the MIC [5] was 7.08 µM (≈ 7.99 µg/mL). For the same compound, the MIC [6] was 113 µM (≈ 128 µg/mL).

`CC(C)C[C@H](NC(=O)[C@H](CC(C)C)NC(=O)[C@H](CCCCN)NC(=O)[C@H](CCCCN)NC(=O)[C@H](CC(C)C)NC(=O)[C@H](Cc1ccc(O)cc1)NC(=O)[C@H](CCCCN)NC(=O)[C@H](CC(C)C)NC(=O)[C@@H](N)Cc1ccccc1)C(N)=O` [FLKYLKKLL] was tested, and the MIC [3] was 13.7 µM and 27.5 µM and the MIC [1] was 13.7 µM and 27.5 µM.

In the case of `CC[C@H](C)[C@H](NC(=O)CN)C(=O)NCC(=O)N[C@@H](CCCCN)C(=O)N[C@@H](Cc1ccccc1)C(=O)N[C@H](C(=O)N[C@@H](Cc1cnc[nH]1)C(=O)N[C@@H](C)C(=O)N[C@@H](C)C(=O)N[C@@H](CCCCN)C(=O)N[C@@H](CCCCN)C(=O)N[C@@H](Cc1ccccc1)C(=O)NCC(=O)N[C@@H](CCCCN)C(=O)N[C@@H](CC(C)C)C(=O)N[C@@H](Cc1ccccc1)C(=O)N[C@H](C(=O)NCC(=O)N[C@@H](CCC(=O)O)C(=O)N[C@H](C(=O)N[C@@H](CCSC)C(=O)N[C@@H](CC(N)=O)C(=O)N[C@@H](CO)C(N)=O)[C@@H](C)CC)[C@@H](C)CC)[C@@H](C)CC` [GIGKFIHAAKKFGKLFIGEIMNS], the MIC [7] is reported as 2.4 µM (≈ 6.01 µg/mL), the MIC [8] is reported as 23.1 µM (≈ 57.8 µg/mL) and the MIC [9] is reported as 9.6 µM (≈ 24.1 µg/mL).

`CC[C@H](C)[C@H](N)C(=O)N[C@@H](CC(N)=O)C(=O)N[C@@H](Cc1c[nH]c2ccccc12)C(=O)N[C@@H](CCCCN)C(=O)N[C@@H](CCCCN)C(=O)NCC(=O)N[C@@H](CCCCN)C(=O)N[C@@H](CCC(=O)O)C(=O)N[C@H](C(=O)N[C@@H](CC(C)C)C(=O)N[C@@H](CCCCN)C(=O)N[C@@H](C)C(=O)N[C@@H](CC(C)C)C(N)=O)C(C)C` [INWKKGKEVLKAL] was tested, and the MIC [10] was ≥ 100 µM and the MIC [7] was > 100 µM.

With `CC[C@H](C)[C@H](NC(C)=O)C(=O)N[C@@H](CC(N)=O)C(=O)N[C@@H](Cc1c[nH]c2ccccc12)C(=O)N[C@@H](CC(C)C)C(=O)N[C@@H](CCCCN)C(=O)N[C@@H](CC(C)C)C(=O)NCC(=O)N[C@@H](CCCCN)C(=O)N[C@@H](CCCCN)C(=O)N[C@@H](CC(C)C)C(=O)N[C@@H](CC(C)C)C(=O)N[C@@H](CO)C(=O)N[C@@H](C)C(=O)N[C@@H](CC(C)C)C(N)=O` [INWLKLGKKLLSAL] the MIC [10] was 25 µM (≈ 41 µg/mL) and the MIC [7] was > 100 µM.

`CC[C@H](C)[C@H](N)C(=O)N[C@@H](CC(N)=O)C(=O)N[C@@H](Cc1c[nH]c2ccccc12)C(=O)N[C@@H](CO)C(=O)N[C@@H](CO)C(=O)N[C@H](C(=O)N[C@@H](Cc1ccccc1)C(=O)N[C@@H](CCC(=O)O)C(=O)N[C@@H](CCCCN)C(=O)N[C@H](C(=O)N[C@@H](CCCCN)C(=O)N[C@@H](CC(N)=O)C(=O)N[C@@H](CC(C)C)C(=O)N[C@H](C(N)=O)C(C)C)C(C)C)[C@@H](C)CC` [INWSSIFEKVKNLV] was tested, and the MIC [10] was ≥ 40 µM and the MIC [7] was 35 µM (≈ 58.7 µg/mL).

Work on `CC[C@H](C)[C@H](NC(=O)[C@H](Cc1ccccc1)NC(=O)[C@H](CO)NC(=O)[C@H](CCCCN)NC(=O)[C@H](Cc1c[nH]c2ccccc12)NC(=O)[C@@H](N)CCCCN)C(=O)N[C@@H](CCCCN)C(=O)N[C@@H](CCCCN)C(=O)N[C@@H](C)C(=O)N[C@@H](CCCCN)C(=O)N[C@H](C(=O)N[C@@H](CO)C(=O)N[C@@H](Cc1ccccc1)C(=O)N[C@@H](CC(C)C)C(=O)N[C@@H](Cc1cnc[nH]1)C(=O)N[C@@H](CO)C(=O)N[C@@H](C)C(=O)N[C@@H](CCCCN)C(=O)N[C@@H](CCCCN)C(=O)N[C@@H](Cc1ccccc1)C(N)=O)[C@@H](C)O` [KWKSFIKKAKTSFLHSAKKF] yielded an MIC [8] of 10.4 µM (≈ 25 µg/mL).

`CC[C@H](C)[C@H](NC(=O)[C@H](Cc1ccccc1)NC(=O)[C@H](CO)NC(=O)[C@H](CCCCN)NC(=O)[C@H](Cc1c[nH]c2ccccc12)NC(=O)[C@@H](N)CCCCN)C(=O)N[C@@H](CCCCN)C(=O)N[C@@H](CCCCN)C(=O)N[C@@H](CC(C)C)C(=O)N[C@H](C(=O)N[C@@H](CO)C(=O)N[C@@H](CCCCN)C(=O)N[C@@H](Cc1ccccc1)C(=O)N[C@@H](CC(C)C)C(=O)N[C@@H](Cc1cnc[nH]1)C(=O)N[C@@H](CO)C(=O)N[C@@H](C)C(=O)N[C@@H](CC(=O)O)C(=O)N[C@@H](CCCCN)C(=O)N[C@@H](Cc1ccccc1)C(N)=O)[C@@H](C)O` [KWKSFIKKLTSKFLHSADKF] gave an MIC [8] of 10.2 µM (≈ 25 µg/mL).

For `CC[C@H](C)[C@H](NC(=O)[C@@H](NC(=O)[C@H](CO)NC(=O)[C@@H]1CCCN1C(=O)[C@@H](NC(=O)[C@@H](NC(=O)[C@H](CO)NC(=O)[C@H](CO)NC(=O)[C@H](CC(C)C)NC(=O)[C@H](C)NC(=O)[C@H](CO)NC(=O)[C@H](CC(C)C)NC(=O)[C@H](C)NC(=O)[C@H](C)NC(=O)CNC(=O)[C@H](CC(C)C)NC(=O)[C@@H](N)CC(C)C)C(C)C)[C@@H](C)CC)C(C)C)C(=O)N[C@@H](CO)C(=O)N[C@@H](Cc1c[nH]c2ccccc12)C(=O)N[C@@H](Cc1ccccc1)C(=O)N[C@@H](CCC(N)=O)C(=O)N[C@@H](CCCCN)C(N)=O` [LLGAALSALSSVIPSVISWFQK], the MIC [3] was 32 µM (≈ 73.2 µg/mL), the MIC [4] was 16 µM (≈ 36.6 µg/mL) and the MIC [1] was > 64 µM. It also gave an MIC [2] of 4 µM (≈ 9.15 µg/mL) and an MIC [9] of 8 µM (≈ 18.3 µg/mL).

`CC[C@H](C)[C@H](NC(=O)[C@@H]1CCCN1C(=O)[C@H](CC(C)C)NC(=O)[C@@H](N)CC(C)C)C(=O)N[C@H](C(=O)NCC(=O)N[C@@H](CC(N)=O)C(=O)N[C@@H](CC(C)C)C(=O)N[C@@H](CC(C)C)C(=O)N[C@@H](CCCCN)C(=O)N[C@@H](CO)C(=O)N[C@@H](CC(C)C)C(=O)N[C@@H](CC(C)C)C(=O)NCC(=O)N[C@@H](Cc1c[nH]c2ccccc12)C(=O)N[C@@H](CCCCN)C(=O)N[C@@H](CCCN=C(N)N)C(=O)N[C@@H](CCCCN)C(=O)N[C@@H](CCCN=C(N)N)C(=O)N[C@@H](Cc1ccccc1)C(=O)NCC(N)=O)C(C)C` [LLPIVGNLLKSLLGWKRKRFG] was tested, and the MIC [4] was 5 µM and 12.5 µM and the MIC [5] was 4 µM and 8 µM.

With `CC[C@H](C)[C@H](NC(=O)[C@H](CS)NC(=O)[C@H](CCCN=C(N)N)NC(=O)[C@@H](N)CC(C)C)C(=O)N[C@@H](C)C(=O)N[C@@H](CC(C)C)C(=O)N[C@@H](CCCN=C(N)N)C(=O)N[C@@H](CCCCN)C(=O)N[C@@H](CCCCN)C(N)=O` [LRCIALRKK] the MIC [7] was 20.6 µM (≈ 22.6 µg/mL) and the MIC [9] was > 58.2 µM.

`CC(=O)N[C@@H](CCC(N)=O)C(=O)N[C@@H](C)C(=O)N[C@@H](CCCCN)C(=O)O` [QAK] gave an MIC [1] of 10.9 µM (≈ 4.21 µg/mL) and an MIC [2] of 21.7 µM (≈ 8.41 µg/mL).

With `CC[C@H](C)[C@H](NC(=O)[C@@H](NC(=O)[C@@H](NC(=O)[C@@H]1CCCN1C(=O)[C@H](Cc1c[nH]c2ccccc12)NC(=O)[C@H](Cc1ccccc1)NC(=O)[C@H](CCCN=C(N)N)NC(=O)[C@H](CCCCN)NC(=O)[C@@H](NC(=O)[C@@H](N)CCCN=C(N)N)[C@@H](C)CC)C(C)C)C(C)C)C(=O)N[C@@H](CCCN=C(N)N)C(=O)N[C@H](C(=O)N[C@H](C(=O)N[C@H](C(=O)N[C@@H](C)C(=O)NCC(=O)N[C@@H](Cc1ccc(O)cc1)C(=O)N[C@@H](CC(N)=O)C(=O)N[C@@H](CC(C)C)C(=O)O)C(C)C)C(C)C)[C@@H](C)O` [RIKRFWPVVIRTVVAGYNL] the MIC [11] was ≥ 32.8 µM and the MIC [1] was 87.4 µM (≈ 200 µg/mL).

In the case of `CC(C)[C@H](NC(=O)[C@H](Cc1c[nH]c2ccccc12)NC(=O)[C@H](CCCCN)NC(=O)[C@@H](N)CCCN=C(N)N)C(=O)N[C@@H](Cc1ccc(O)cc1)C(=O)N[C@@H](Cc1c[nH]c2ccccc12)C(=O)N[C@@H](CCCN=C(N)N)C(=O)N[C@@H](CC(N)=O)C(=O)N[C@@H](CCCN=C(N)N)C(=O)O` [RKWVYWRNR], the MIC [1] is reported as 91.7 µM (≈ 125 µg/mL) and the MIC [2] is reported as 22.9 µM (≈ 31.3 µg/mL).

In the case of `CC[C@H](C)[C@H](NC(=O)[C@H](CO)NC(=O)[C@@H](NC(=O)[C@H](CCCCN)NC(=O)[C@H](Cc1ccccc1)NC(=O)[C@@H]1CCCN1C(=O)[C@@H](N)[C@@H](C)O)[C@@H](C)CC)C(=O)N[C@@H](Cc1cnc[nH]1)C(=O)N[C@@H](CC(C)C)C(=O)NCC(=O)NCC(=O)N[C@@H](Cc1ccc(O)cc1)C(N)=O` [TPFKISIHLGGY], the MIC [12] is reported as ≥ 150 µM.

With `CC(C)C[C@H](NC(=O)[C@H](Cc1ccc(O)cc1)NC(=O)[C@H](CCCCN)NC(=O)[C@H](Cc1c[nH]c2ccccc12)NC(=O)[C@H](Cc1ccccc1)NC(=O)[C@H](CCCCN)NC(=O)[C@H](CCCN=C(N)N)NC(=O)[C@@H](N)Cc1c[nH]c2ccccc12)C(=O)N[C@@H](CCCCN)C(N)=O` [WRKFWKYLK] the MIC [4] was 185 µM and > 92.3 µM, the MIC [1] was 22.9 µM (≈ 31 µg/mL) and the MIC [2] was 22.9 µM (≈ 31 µg/mL).
